In brackets after ≈: the same amount, converted by molar mass. Where two headings read alike, the source gives them in different places.
Assays:
[1] = test system: Human stomach cancer cell line H-81; assay: Anti-cancer activity potentiating action in nude mice with human stomach cancer H-81 (A-V); assay type: in vivo, human tumor in ICR nude mice
Text: ICR nude mice (4-5 weeks old; 7 per group) were used. Human stomach cancer cell line H-81 was used as tumor cells. Tissue pieces, 2 mm in square, were taken, and transplanted subcutaneously to the right back portion of the nude mice. […] The sequence of the drug administration was as follows: […] The administration was further repeated every five days from the day on which the administration was first carried out. The total number of administrations of each drug was four. […] The measurement was made on the days on which the drugs were administered, and four weeks after the start of drug administration.

[2] = test system: clinically isolated human cancer cells (lung adenocarcinoma, lung squamous cell carcinoma, osteosarcoma, ovarian carcinoma); assay: Anti-tumor activity on clinically isolated human cancer cells, morphological changes (A-I Part 2); assay type: cell-based
Experimental: Lung adenocarcinoma, lung squamous cell carcinoma, osteosarcoma and ovarian carcinoma were selected as clinically isolated human cancer cells, and the anti-tumor activities of various drugs were examined. Specifically, various tumor tissues were individually cut to thin pieces by a razor, and by washing in saline by using a 1 mm mesh, the connective tissues were removed. The resulting solution was centrifuged at 1000 rpm for 1 minute to remove necrotizing substances. Washing with saline gave tumor cells.
They were incubated at 37° for 4 to 8 hours. Thereafter, pumping was carried out to disperse the tissue pieces. Then, centrifugation at 1000 rpm for 5 minutes, cell coating and Giemsa staining were performed. The anti-tumor activity of each drug was examined on the basis of observation of the morphological changes of the tumor cells under a microscope.
The experiment was conducted on two examples of each tumor cells (total 8 examples).

L5178Y/S = assay: Anti-cancer activity potentiating action, colony formation, mouse leukemia sensitive cells (table head prints PLC/S); assay type: cell-based; settings: head prints PLC/S (parent cells); for IC50: Mus musculus, L5178Y
Experimental: (§1) The anti-cancer activity potentiating action of the malate of formula (I) was examined using Chinese hamster cells (sensitive cell line V79/S and ADM-resistant cell line V79/ADM), human hepatoma cells (sensitive cell line PLC/S and colchicin-resistant cell line PLC/Col) and mouse leukemia cells (sensitive cell line L5178Y/S) and aclarubicin-resistant cell line L5178Y/ACR).
(§2) Of these tumor cells, the sensitive cells (400 cells) and the resistant cells (600 cells) were each incubated in 10 ml of Eagle's MEM medium containing 10% bovine serum for 24 hours, and then each of the test drugs indicated in Table 6 was added. Thereafter, the incubation was carried out for 9 days. The concentration (IC50 : micrograms/ml) of the test drug required to inhibit 50% of the colony formation (proliferation) of the tumor cells was calculated.
(§3) Adriamycin (ADM) and aclarubicin (ACR) as anti-cancer agents were used in combination with 20 micrograms/ml of the malate of formula (I).

PLC/Col [3] = assay: Colony formation (proliferation) inhibition, colchicin-resistant human hepatoma cells (A-I Part 1); assay type: cell-based; settings: Homo sapiens, 216 h
Experimental: (§4) Sensitive cell line V79/S and ADM-resistant cell line V79/ADM of the Chinese hamster were used, and sensitive cell line PLC/S and cholchicin-resistant cell line PLC/Col, as human hepatoma cells.
(§5) The sensitive cell lines (400 cells) or the resistant cell lines (600 cells) were each incubated for 24 hours in 10 ml of Eagle's MEM medium containing 10% bovine serum. Each of the drugs indicated in Table 1 below was dissolved in ethanol, and 50 microliters of the resulting solution was added to the medium. The incubation was further carried out for 9 days. The concentration of the drug which inhibits 50% of the colony formation (proliferation) of the tumor cells was calculated.
(§6) V79/S and V79/ADM were tested by using all of the drugs described above, but PLC/S and PLC/Col were tested by using only the malate of formula (I), adriamycin and peplomycin.
(§7) The concentrations (micrograms/ml) required to inhibit 50% of the proliferation of the tumor cells, expressed by IC50, are shown in Table 1.

V79/S [4] = assay: Colony formation (proliferation) inhibition, sensitive Chinese hamster cells (A-I Part 1); assay type: cell-based; settings: Cricetulus griseus, 216 h
Experimental: as §4, §5, §6, §7

PLC/S [5] = assay: Anti-cancer activity potentiating action, colony formation, PLC/S parent cells (A-III); assay type: cell-based, human; settings: for IC50: Homo sapiens
Experimental: as §1, §2
(§8) As anti-cancer agents, adriamycin (ADM) and peplomycin (PEP) were used in combination with the malate of formula (I) (5 micrograms/ml).

PLC/S [6] = assay: Colony formation (proliferation) inhibition, sensitive human hepatoma cells (A-I Part 1); assay type: cell-based; settings: Homo sapiens, 216 h
Experimental: as §4, §5, §6, §7

L5178Y/ACR = assay: Anti-cancer activity potentiating action, colony formation, aclarubicin-resistant mouse leukemia cells (table head prints PLC/ACR); assay type: cell-based; settings: for IC50: Mus musculus, L5178Y
Experimental: as §1, §2, §3

V79/S [7] = assay: Anti-cancer activity potentiating action, colony formation, V79/S parent cells (A-III); assay type: cell-based, Chinese hamster; settings: V79/S; for IC50: Cricetulus griseus
Experimental: as §1, §2
(§9) (A) Chinese hamster V79 cells
(§10) As anti-cancer agents, there were used adriamycin (ADM), aclarubicin (ACR), actinomycin D (ACD), 5-fluorouracil (5-FU), cytarabin (Ara-C), cisplatin (CDDP), methotrexate (MTX), mitomycin C (MMC), nimustine (ACNU), mitoxantrone, etoposide ([…]), vincristine (VCR), bleomycin (BLM) and peplomycin (PEP). For the sensitive cells, the anti-cancer agents were used in combination with 10 micrograms/ml of the malate of formula (I), and for the resistant cells, the anti-cancer agents were used in combination with the malate of formula (I) 3 micrograms/ml, 5 micrograms/ml, and 10 micrograms/ ml.

Lewis lung cancer cells = assay: Life prolongation of BDF1 mice with Lewis lung cancer (A-II Part 2); assay type: in vivo, mouse (male BDF1)
Experimental: Male BDF1 mice having a body weight of 20±2 g (6 per group) were used, and as tumor cells, Lewis lung cancer cells were transplanted under the skin of the side abdomen of each of the mice at a rate of 10^5 cells. […] The life prolongation rate of the mice in each group was determined by the treated group/non-treated control group (T/C %).

PLC/Col [8] = assay: Anti-cancer activity potentiating action, colony formation, PLC/Col resistant cells (A-III); assay type: cell-based, human; settings: for IC50: Homo sapiens
Experimental: as §1, §2, §8

V79/ADM [9] = assay: Colony formation (proliferation) inhibition, ADM-resistant Chinese hamster cells (A-I Part 1); assay type: cell-based; settings: Cricetulus griseus, 216 h
Experimental: as §4, §5, §6, §7

V79/ADM [10] = assay: Anti-cancer activity potentiating action, colony formation, V79/ADM resistant cells (A-III); assay type: cell-based, Chinese hamster; settings: V79/ADM; for IC50: Cricetulus griseus
Experimental: as §1, §2, §9, §10

[11] = test system: human tumor cells (muscle fibrosarcoma HT-1080); assay: Anti-cancer activity potentiating action in nude mice with HT-1080 (A-VI); assay type: in vivo, human tumor in ICR nude mice; settings: ADM 4 mg/kg i.v., days 5, 10, 15, 20; day 36
Experimental: ICR nude mice, 6 per group, were used, and the experiment was conducted substantially in accordance with the procedure described in A-V.
As tumor cells, human tumor cells (muscle fibrosarcoma HT-1080) were used, and 5 days after the transplantation, drug administration was started.
The administration was further performed every 5 days from the day of starting the administration, and the total number of administrations was therefore 4.
Mitomycin C (MMC) was tested by the same way as above.
Thirty-six days after the transplantation of the tumor, a tumor mass was extracted and its weight was measured. From the difference of the weight of the tumor from the non-treated control group, the tumor growth inhibition ratio (%) was calculated.

Meth-A = assay: Tumor proliferation inhibiting activity, Meth-A (A-IV); assay type: in vivo, BALB/c rats; settings: for Number of surviving animals: 16 days later; for T/C (tumor weight) / Tumor weight mean ± S.D.: day 16
Experimental: Female BALB/c rats (7 weeks old), 8 per group, were used. Tumor cells (Meth-A) induced by methyl cholanthrene were transplanted intraperitoneally to the rats, and then the malate of formula (I) was administered intraperitoneally to the rats. The proliferation inhibiting activity of the malate was examined by comparing the weight of the tumor cells with that of the tumor cells in the non-treated control group.
The dose of the malate of formula (I) was 1.25, 2.5, 5.0, and 10.0 mg/kg/day. Mitomycin C (MMC) was administered as another anti-cancer agent. The weight of the tumor cells was measured, and the proliferation inhibiting activity was determined.
The weight (g) of the tumor with respect to that of the tumor in the control group (T/C, %) after 16 days from the transplantation of the tumor cells, and the number of surviving rats after 16 days are shown in Table 8.

[12] = Acute toxicity test in mice, oral; assay type: in vivo, mouse; settings: oral, 2,000 mg/kg
Experimental: Using mice, the malate of formula (I) obtained as above was tested for toxicity. […] Toxicity was neither noted.

B16 melanoma cells = assay: Life prolongation of BDF1 mice with B16 melanoma (A-II Part 1); assay type: in vivo, mouse (male BDF1); settings: 5 mg/kg i.p., three times every 4 days
Experimental: Three to eight male BDF1 mice having a body weight of 20±3 g were used, and B16 melanoma cells were selected as tumor cells. The melanoma cells were homogenized, and the homogenate was transplanted subcutaneously to the mice in an amount of 0.5 ml/mouse. After 7 days, the malate of formula (I) in accordance with this invention and an anti-cancer agent, neocartinostatin (NCS), were intraperitoneally administered either singly or in combination three times every 4 days in a dose of 5 mg/kg and 0.45 mg/kg for each time. The life prolonging rate of the mice was determined by the treated group/non-treated control group (T/C %).

[13] = alone, Table 7 lower part, read-out: IC50, anti-cancer agent alone
[14] = with compound (I) 20 μg/ml, read-out: IC50 in combination with compound (I)
[15] = read-out: IC50, anti-cancer agent alone
[16] = read-out: IC50 in combination with compound (I)
[17] = alone, Table 6, read-out: IC50, anti-cancer agent alone
[18] = with compound (I) 10 μg/ml, read-out: IC50 in combination with compound (I)
[19] = 1.25 mg/kg/day i.p., days 1, 3, 5
[20] = 2.5 mg/kg/day i.p., days 1, 3, 5

SMILES: COc1cccc2c1C(=O)c1c(O)c3c(c(O)c1C2=O)C[C@@](O)(C(=O)CO)C[C@@H]3O[C@H]1C[C@H](N)[C@H](O)[C@H](C)O1 [ADM, adriamycin]
- Tumor growth inhibition rate ([1]; 2 mg/kg i.v., 4 weeks later, **p < 0.1 vs control): 45.2%
- Tumor growth inhibition rate ([1]; 2 mg/kg i.v., 5 days later): 16.5%
- Tumor growth inhibition rate ([1]; 2 mg/kg i.v., 10 days later): 45.7%
- Tumor growth inhibition rate ([1]; 2 mg/kg i.v., 15 days later): 49.5%
- Tumor growth inhibition rate ([1]; ADM 5 mg/kg i.v. singly, 4 weeks later, *p < 0.5 vs control): 59.7%
- Efficacy ratio (rated significant by Fisher's test) ([2]; 0.3 μg/ml): 3/8
- IC50 (L5178Y/S; [13]): 0.048 µg/mL
- IC50 (L5178Y/S; [14]): 0.016 µg/mL
- Potentiation activity (L5178Y/S; with compound (I) 20 μg/ml): 3.0 times
- IC50 (PLC/Col [3]): 0.08 µg/mL (≈ 0.147 µM)
- IC50 (V79/S [4]): 0.057 µg/mL (≈ 0.105 µM)
- IC50 (PLC/S [5]; [15]): 0.005 µg/mL
- IC50 (PLC/S [5]; [16]): 0.0053 µg/mL
- Potentiation activity (PLC/S [5]; PLC/S, with compound (I) 5 μg/ml): 1.0 times
- IC50 (PLC/S [6]): 0.005 µg/mL (≈ 0.0092 µM)
- IC50 (L5178Y/ACR; [13]): 0.06 µg/mL
- IC50 (L5178Y/ACR; [14]): 0.18 µg/mL
- Potentiation activity (L5178Y/ACR; with compound (I) 20 μg/ml): 3.7 times
- IC50 (V79/S [7]; [17]): 0.057 µg/mL
- IC50 (V79/S [7]; [18]): 0.008 µg/mL
- Potentiation activity (V79/S [7]; with compound (I) 10 μg/ml): 7.1 times
- T/C (life prolongation rate) (Lewis lung cancer cells; 1.25 mg/kg i.v.): 218%
- T/C (life prolongation rate) (Lewis lung cancer cells; 2.5 mg/kg i.v. (lipid emulsion calculated as malate)): 173%
- T/C (life prolongation rate) (Lewis lung cancer cells; 5.0 mg/kg i.v. (lipid emulsion calculated as malate)): 241%
- IC50 (PLC/Col [8]; [15]): 0.08 µg/mL
- IC50 (PLC/Col [8]; [16]): 0.027 µg/mL
- Potentiation activity (PLC/Col [8]; PLC/Col, with compound (I) 5 μg/ml): 3.0 times
- IC50 (V79/ADM [9]): 8.8 µg/mL (≈ 16.2 µM)
- IC50 (V79/ADM [10]; [17]): 8.8 µg/mL
- IC50 (V79/ADM [10]; [18]): 0.25 µg/mL
- Potentiation activity (V79/ADM [10]; with compound (I) 10 μg/ml): 35.2 times
- Tumor growth inhibition ratio [11]: 96.1%
- Tumor weight [11]: 0.14 ± 0.32

SMILES: COc1ccc(CNCCN(CC=C(C)CCC=C(C)CCC=C(C)CCC=C(C)CCC=C(C)CCC=C(C)CCC=C(C)CCC=C(C)CCC=C(C)C)Cc2ccc(OC)c(OC)c2)cc1OC [Compound (I), N-solanesyl-N,N'-bis(3,4-dimethoxybenzyl)ethylenediamine malate]
- Number of surviving animals (Meth-A; [19]): 8/8
- T/C (tumor weight) (Meth-A; [19]): 75%
- Tumor weight mean ± S.D. (Meth-A; [19]): 1.255 ± 0.533 g
- Number of surviving animals (Meth-A; [20]): 8/8
- T/C (tumor weight) (Meth-A; [20]): 79%
- Tumor weight mean ± S.D. (Meth-A; [20]): 1.327 ± 0.350 g
- Number of surviving animals (Meth-A; 5.0 mg/kg/day i.p., day 1): 8/8
- T/C (tumor weight) (Meth-A; 5.0 mg/kg/day i.p., day 1): 83%
- Tumor weight mean ± S.D. (Meth-A; 5.0 mg/kg/day i.p., day 1): 1.389 ± 0.644 g
- Number of surviving animals (Meth-A; 10.0 mg/kg/day i.p., day 1): 8/8
- T/C (tumor weight) (Meth-A; 10.0 mg/kg/day i.p., day 1): 65%
- Tumor weight mean ± S.D. (Meth-A; 10.0 mg/kg/day i.p., day 1): 1.091 ± 0.659 g
- Efficacy ratio (rated significant by Fisher's test) ([2]; 3 or 30 μg/ml (3 μg/ml for 3 examples, 30 μg/ml for 5)): 5/8
- IC50 (PLC/Col [3]; PLC/Col, 9 days, Table 1, read-out: IC50): 1.7 µg/mL
- IC50 (V79/S [4]; V79/S, 9 days, Table 1, read-out: IC50): 11.5 µg/mL
- IC50 (PLC/S [5]; PLC/S, alone, Table 7, read-out: IC50, anti-cancer agent alone): 6.8 µg/mL
- IC50 (PLC/S [6]; PLC/S, 9 days, Table 1, read-out: IC50): 6.8 µg/mL
- IC50 (V79/S [7]; [17]): 11.5 µg/mL
- IC50 (PLC/Col [8]; PLC/Col, alone, Table 7, read-out: IC50, anti-cancer agent alone): 1.7 µg/mL
- IC50 (V79/ADM [9]; V79/ADM, 9 days, Table 1, read-out: IC50): 3 µg/mL
- Acute toxicity, abnormality in mice [12]: no abnormality was found
- IC50 (V79/ADM [10]; [17]): 3 µg/mL
- T/C (life prolonging rate at M.S.T.) (B16 melanoma cells): 165%

— US5004756A, “Anti-cancer activity potentiator” (priority 1988, dated 1991)
